Assay: Biopharmaceutical Classification System class
Type: physicochemical
Text: The present disclosure relates to a quality controllable solid dosage form and a process for its preparation, wherein the solid dosage form comprises a compound of formula 1 4-{(1S)-1-[({3-(difluoromethyl)-1-methyl-5-[3-(trifluoromethyl)phenoxy]-4-1H-pyrazolyl} carbonyl)amino]ethyl}benzoic acid (compound AN0025) and optionally at least one pharmaceutically acceptable carrier. […] The inventor unexpectedly found in the experiment that AN0025 tablets prepared by different processes can show good uniformity in in vitro dissolution experiments, and AN0025 tablets prepared with different API particle sizes have similar in vitro dissolution behavior and in vivo exposure.

With `C[C@H](NC(=O)c1c(C(F)F)nn(C)c1Oc1cccc(C(F)(F)F)c1)c1ccc(C(=O)O)cc1` [AN0025, 4-{(1S)-1-[({3-(difluoromethyl)-1-methyl-5-[3-(trifluoromethyl)phenoxy]-4-1H-pyrazolyl}carbonyl)amino]ethyl}benzoic acid] the “Biopharmaceutical Classification System class” value was “class IV” and the solubility (as per BCS class) was “low solubility”.

— patent publication US20250381143A1, “A SOLID PHARMACEUTICAL COMPOSITION” (ADLAI NORTYE BIOPHARMA CO., LTD., priority 2021, published 2025)
